Results on 27 molecules are retold here after PubChem BioAssay AID489023 (Sanford-Burnham Center for Chemical Genomics, 2010).

The subject of the experiment is 697B cells, BCR-induced NF-kB luciferase reporter luminescence. Put plainly: B-cell receptor NF-kB reporter inhibition – 697B cells, luciferase luminescence, dose response (AID 489023).

SMILES strings stand for the structures. The source made the active and inactive calls. No rule for the calls is given here.

As usually defined, the IC50 is the concentration needed to halve the response being measured.

Take `Cc1ccc(C(=O)OCC(=O)N(CC(C)C)c2c(N)n(Cc3ccccc3)c(=O)[nH]c2=O)o1`: the IC50 is 20.6 µM (inactive).

As for `O=C(CCCN1C(=O)/C(=C/c2ccccc2Cl)SC1=S)NNC(=O)c1ccccc1Cl`, the IC50 was 4.23 µM.

Consider `CC1CCN(CCCNC(=O)COc2cc(=O)n(C)c3ccccc23)CC1`, for which the IC50 was > 80 µM (inactive).

In the case of `C=C1C(=O)[C@@]23C[C@H]4[C@@H]5[C@@]6(C)CCC[C@@]57[C@@H]2[C@@H](O)[C@@H]1C[C@H]3[C@H]7N4C6`, the IC50 was 2.89 µM.

As to `CC1=CC(C)(C)Nc2ccc(OC(=O)CN3C(=O)c4ccccc4C3=O)cc21`, the IC50 is 4.73 µM.

In the case of `CN1C(=O)CSc2ccc(NC(=O)N3CCN(c4ccccc4)CC3)cc21`, the IC50 was 74 µM (inactive).

Consider `O=C(Nc1cccc(S(=O)(=O)Nc2ccc(Cl)cc2)c1)c1ccc(Cl)nc1`, for which the IC50 was 41.6 µM (inactive).

As to `COc1cc(OC)c(/C=N/NC(N)=S)cc1Br`, the IC50 is 34.2 µM (inactive).

Regarding `CC1CCc2c(sc3nc(C(C)(C)C)nc(N4CCN(C(=O)CCl)CC4)c23)C1` (configuration not stated), the IC50 was 0.68 µM.

Consider `CCn1c(CN2CCN(c3ccc(Cl)cc3)CC2)nc2ccccc21`, for which the IC50 is > 80 µM (inactive).

As for `CC(C)c1[nH]nc2c1C(c1ccco1)C(C#N)=C(N)O2` (configuration not stated), the IC50 is > 80 µM (inactive).

As for `CCCCOc1ccc(NC(=O)C(=O)NCCCn2ccnc2)cc1`, the IC50 is 10.9 µM.

`COc1ccc(-c2noc(N3CCC(C(=O)Nc4ccc(OC)c(OC)c4)CC3)n2)cc1`: the IC50 was > 80 µM (inactive).

As to `Cn1c(=O)n(C)c2cc(NS(=O)(=O)c3ccccc3)ccc21`, the IC50 is 38.3 µM (inactive).

Turning to `Cc1ccc(NC(=O)C2CCC(CNc3c(N4CCC(C)CC4)c(=O)c3=O)CC2)cc1F` (configuration not stated), the IC50 is > 80 µM (inactive).

`Cc1ccc(C(=O)CSc2nnc(COc3cc(C)cc(C)c3)o2)cc1`: the IC50 was > 80 µM (inactive).

In the case of `C(=N\Nc1nc(Nc2ccccc2)nc(Nc2ccccc2)n1)/c1cccnc1`, the IC50 was > 80 µM (inactive).

In the case of `Cc1nc2cc(-c3ccccc3)nn2c(C)c1CCC(=O)N1CCC2(CC1)OCCO2`, the IC50 was > 80 µM (inactive).

With `CC(C)Cn1c([N+](=O)[O-])nc2c1c(=O)[nH]c(=O)n2C`, the IC50 is 5.67 µM.

Turning to `CC(C)(C)c1ccc(-c2cc(N)n[nH]2)cc1`, the IC50 is 15.6 µM.

Regarding `O=C(CN1C(=O)c2ccccc2S1(=O)=O)N1CCc2ccccc21`, the IC50 is 1.24 µM.

Take `O=C1NC[C@H](c2ccccc2)OC(=O)[C@@H](Cc2ccc(F)cc2)C/C=C\C[C@H]1CC(=O)N(CCO)Cc1ccccc1`: the IC50 is 9.87 µM.

As for `CCOC(=O)C1CCN(c2ncnc3c2cnn3-c2ccc(Cl)cc2)CC1`, the IC50 was 0.82 µM.

As for `CCN1C(=O)c2cccc3c(S(=O)(=O)Nc4ccccn4)ccc1c23`, the IC50 is 25.2 µM (inactive).

As to `Cc1c(CCC(=O)N2CCC(C(=O)O)CC2)c(=O)oc2cc3oc4c(c3cc12)CCCC4`, the IC50 is 14 µM.

With `COc1ccc(/C=C2/SC(=S)N(CCC(=O)O)C2=O)cc1`, the IC50 was 2.46 µM.

With `CCN1C(=O)c2cccc3c(S(=O)(=O)N4CCC(C)CC4)ccc1c23`, the IC50 was 49.3 µM (inactive).
